One molecule from patent publication US12539285B2, “Therapeutic agent for hypertrophic cardiomyopathy” (JUNTENDO EDUCATIONAL FOUNDATION, priority 2021, dated 2026) can be followed below.

The test system of assay [1] is myocardial cells derived from iPS cells of hypertrophic cardiomyopathy patient (MYH7 R403Q). The assay can be described thus: Myocardial relaxation rate (SONY SI8000) in HCM patient iPS-derived myocardial cells. The conditions noted are these: ALA/SFC 10 μM/5 μM, 30 μM/1 μM, 100 μM/50 μM; measured Day 20 and Day 26 vs before administration (Day 15); FIG. 1. The assay is classed as cell-based. As for the experimental part:
(§1) Myocardial cells differentiated from iPS cells derived from hypertrophic cardiomyopathy patient were purchased, seeded, and cultured and were then administered with 5-aminolevulinic acid and sodium ferrous citrate (ALA/SFC). As myocardial cells, […] Cardiomyocytes (MYH7 R403Q) (C1081, cat. #556-34781) (FUJIFILM Cellular Dynamics, Inc.) was used. As a control, myocardial cells derived from iPS cells of normal subject (Cell Cardiomyocytes (Control) (C1056, cat. #551-33491) (FUJIFILM Cellular Dynamics, Inc.) was used. As the culture medium for cell seeding, (iCell Plating medium (M1001, cat. #550-33581) (FUJIFILM Cellular Dynamics, Inc.) was used.
(§2) In the cell culture, as the culture medium, iCell Maintenance medium (M1003, cat. #557-3359I) (FUJIFILM Cellular Dynamics, Inc.) was used.
(§3) • Day 1: Cell seeding (myocardial cells derived from iPS cells of hypertrophic cardiomyopathy patient, myocardial cells derived from iPS cells of normal subject). The cells were seeded at 3×10^4 per well in a 96-well plastic plate (nunc); • Day 15: The relaxation rate before administration was measured using SONY SI8000, and ALA/SFC were then administered on the same day at the following doses. The doses were four groups of 0 μM/0 μM, 10 μM/5 μM, 30 μM/1 μM, and 100 μM/50 μM of ALA/SFC for each of the disease myocardial cells and the normal myocardial cells. […]

Assay [2] has as its system myocardial cells derived from iPS cells of normal subject. The experiment in a line: Myocardial relaxation rate (SONY SI8000) in normal myocardial cells. It counts as cell-based. The conditions noted are these: ALA/SFC 10 μM/5 μM, 30 μM/1 μM, 100 μM/50 μM; measured Day 20 and Day 26 vs before administration (Day 15); FIG. 2. As to the method: as §1, §2, §3
The subject of assay [3] is zebrafish cardiomyopathy model (myocardial troponin T knockdown (tnnt2a KD)). The experiment in a line: Zebrafish cardiomyopathy model (tnnt2a KD), peak filling rate by heart imaging. It counts as in vivo. The conditions noted are these: ALA/SFC 100 μM/50 μM in culture solution, DAY 0-2, imaging DAY 3; FIG. 5. The text has this: A synthetic nucleic acid, morpholino antisense oligo (MO), which inhibits translation of zebrafish myocardial troponin T (tnnt2a), was used. The target sequence of tnnt2a-MO used for producing this cardiomyopathy model was 5′-[…]-3′ (SEQ ID NO: 1), and the target sequence of standard control MO (Control-MO) used as a negative control was 5′-[…]-3′ (SEQ ID NO: 2). Both MOs used were produced by Certified GeneTool, Inc. Standard control MO (Lis-MO) having the 3′ terminal labeled with a red fluorescent material, Lissamine, was used as an internal standard substance. An MO powder diluted with nuclease free water to 1 mM was used as a stock solution, and the final concentrations of the tnnt2a-MO and Control-MO were adjusted to 1.2 μM and the final concentration of Lis-MO was adjusted to 50 μM, using nuclease free water as a working solution for microinjection. […]
The acquired moving image was converted into sequence images, and the ventricular outline in each frame was recorded as Region of Interest (ROT). Subsequently, the major and minor axes of an ellipse approximating to the ROI on each sequence image were measured by Fit-to-Ellipse algorithm, the volume of the spheroid of each sequence image was calculated as a ventricular volume, and the peak filling rate (PFR: diastolic function) was measured from the rate of change in the obtained ventricular volume.

Assay [4] concerns myocardial cells derived from iPS cells of hypertrophic cardiomyopathy (HCM) patient. The experiment in a line: Fluorescent calcium imaging, peak width of Ca-imaging waveform. The conditions noted are these: 10 μM and 30 μM 5-aminolevulinic acid added from 7th day after seeding; FIG. 4. The assay is classed as cell-based. The text has this:
The determinant of the myocardial relaxation rate is the dissociation rate of myosin and actin, and one of factors of determining the dissociation rate is the Ca^2+ uptake function of ATPase present in the longitudinal tubules of sarcoplasmic reticulum. Accordingly, using the above-mentioned myocardial cells derived from iPS cells of hypertrophic cardiomyopathy (HCM) patient, the peak width of a Ca-imaging waveform, which reflects the disappearance rate of Ca^2+ in myocardial cells (i.e., the uptake rate of Ca^2+ into the sarcoplasmic reticulum) by addition of 5-aminolevulinic acid, was measured. […]
As the measurement apparatus for high content analysis, CQ1 Image Cytometer of Yokogawa Electric Corporation was used, and the measurement was performed with excitation light of 488 nm and fluorescence at 500 to 550 nm (spinning-disk confocal unit with microlens array). […]
Over the entire screen of the obtained image data, the fluorescence intensity was digitized over time to obtain fluorescence waveforms. […] The parameters calculated from a waveform were the line width (sec) at each of 10%, 20%, 30%, 50%, 70%, and 90% of the waveform height, the length (sec) of interval between each wave, and the fluorescence intensity (ΔF).

Consider `NCC(=O)CCC(=O)O` [5-aminolevulinic acid], for which, in assay [1], the “relaxation rate of myocardial cells in hypertrophic cardiomyopathy” value is “noticeably increased”. Further, the “relaxation rate in normal myocardial cells” value in assay [2] is recorded as “did not increase”. Further, in assay [3], the “left ventricular diastolic function (peak filling rate, PFR)” value is recorded as “improved”. The “peak width at 50% of the height of a Ca-imaging waveform (uptake of Ca2+ into sarcoplasmic reticulum)” value in assay [4] was “obviously reduced”.
